The values below come from patent publication US11752116B2, “Method of viral inhibition” (priority 2013, dated 2023).

The test system of assay [1] is DENV-1. As to the kind of experiment: ADE-mediated DENV-1 infection of THP-1 cells, plaque assay. The class given is cell-based. To be noted: Dengue virus, DENV1, THP-1, 48 h, read-out: EC50, ADE-mediated DENV-1 infection. The text has this: In a cell culture model of antibody-dependent enhanced (ADE) DENV infection, THP-1 human monocyte cells infected with DENV-1 in the presence of sub-neutralising levels of a humanized version of the 4G2 antibody, which is cross-reactive with flavivirus envelope proteins (Paradkar et al., 2010 Bio Sci Rep.), show increased virus production compared to cells infected with virus alone. This model mimics the ADE phenomenon thought to occur in patients infected with a second serotype of DENV, which is associated with more severe DENV disease.
Briefly, humanized 4G2 antibody (0.05 μg/ml) was combined with DENV-1 (MOI of 10), and 4-HPR (concentrations as indicated in FIG. 7) in serum-free media, and incubated on ice for 1 h for the immune complex to form. Immune complex inoculums were added to THP-1 cells and incubated for 48 h. Supernatants were collected after 2 days and infectious virus production was quantified by plaque assay.

The next assay has as its system CHIKV. As to the kind of experiment: CHIKV infection of HEK293T cells, plaque assay. The format is cell-based. Particulars: 5 μM, 24 h p.i. Here is the method: HEK293T cells were treated with 5 μM 4-HPR or 4-MPR for 2 h, then infected with CHIKV for 1 h (MOI of 0.1) in the absence of compound (FIG. 9A). Alternatively, HEK293T cells were infected with CHIKV for 1 h (MOI of 0.1) without pre-treating the cells with compound (FIG. 9B). In both instances, virus inoculums were removed, then fresh medium containing the indicated compound was added (FIG. 9A and FIG. 9B). Infectious virus titres were determined by plaque assay 24 h p.i. Data are the mean+standard deviation of one experiment performed in duplicate wells, represented as plaque forming units per ml (PFU/ml).

The test system of the next assay is DENV-2 strain (S221). As to the kind of experiment: Lethal mouse infection model, AG129 mice infected with mouse adapted DENV-2 strain S221. To be noted: 20 mg/kg orally. The class given is in vivo. The text has this: Mice have previously been used as an in vivo model for 4-HPR pharmacokinetics. To examine the effect of 4-HPR on DENV infection in vivo, a lethal mouse infection model, which uses a mouse adapted DENV-2 strain (S221), to infect Sv/129 mice deficient in type I and II interferon receptors (AG129) was used (Zellweger et al., 2010, Cell Host Microbe). Viral infection in this system is enhanced by intraperitoneal delivery of a sub-neutralizing concentration of 4G2 antibody 1 day prior to infection, resulting in peak viremia 3 days p.i. and death of infected mice by day 5. Here, mice were treated with 20 mg/kg of 4-HPR, administered orally at the time of infection, then once (QD) or twice (BID) daily for 5 consecutive days. Consistent with previous reports, infected, untreated mice all died by day 5 (FIG. 8B). Once daily treatment of mice with 4-HPR was sufficient to provide protection to 20% of mice, which recovered from the infectious challenge, whereas increasing the dose to 2 treatments daily, improved protection to 70% (7 of 10 mice recovered from the infectious challenge).
Data are the mean+SEM. Statistical analysis (Student's t test) was performed using Graph Pad Prism software (ns, not significant).

For the next assay, the system named is PERK pathway. As to the kind of experiment: Activation of PERK pathway of the unfolded protein response in DENV-infected cells. The class given is cell-based.
For assay [2], the system named is West Nile virus, Kunjin strain (WNVKUN). The experiment in a line: West Nile virus (Kunjin strain) infection of Vero cells, plaque assay. The class given is cell-based. Particulars: 10 μM, 4 h incubation of Vero cells at the time of infection. Here is the method: FIG. 9C. Viral titre from a plaque assay conducted from Vero cells infected with West Nile virus (Kunjin strain; WNVKUN) after treatment with 10 μM 4-HPR for 4 h.

In the next assay the target is DENV-2 NS5 / IMPα/β (Dengue virus type 2, UniProt P14340). The experiment in a line: AlphaScreen binding of His6-NS5 to IMPα/β heterodimer. On the procedure: AlphaScreen®, a luminescent bead-based assay that measures direct protein-protein interactions, was used to examine the binding of 3 nM His6-NS5 to 10 nM IMPα/β (IMPα/β heterodimer containing biotinylated IMPβ1) in the presence of increasing concentrations of 4-HPR, 4-MPR or ATRA (FIG. 1A), or 4-oxo-4-HPR, 4-HPR or 4-MPR (FIG. 1B). Data are the mean±standard deviation (SD) of triplicate wells from a single typical experiment.
To investigate the specificity of 4-HPR inhibition of NS5-importin association, the binding of 30 nM His6-NS5 to 10 nM IMPα/β, (IMPα/β heterodimer containing biotinylated IMPβ1), 3 nM IMPαΔIBB (biotinylated IMPa with the IMPβ-binding domain removed), or 3 nM biotinylated IMPβ1, in the presence of increasing concentrations of 4-HPR, was investigated.

The next assay relates to DENV-3. The experiment in a line: Cell-based flavivirus immunodetection assay in BHK-21 cells, DENV-3. To be noted: MOI of 0.3, 48 h p.i. On the procedure: (§1) To investigate this, BHK-21 cells were infected with DENV serotypes 1, 2, 3 or 4 (MOI of 0.3) for 1 h in the presence of 4-HPR or 4-MPR (concentrations as indicated in FIG. 6A). Virus inoculum was removed and fresh media containing the indicated compounds was added. Virus infection rates were determined 48 h p.i. using a cell-based flavivirus immunodetection assay. Briefly, cells were fixed and stained for DENV structural protein, E, followed by addition of Alexa Fluor 488 anti-mouse IgG. Viral antigen quantification was performed using Imagexpress. Data shown are representative of a single experiment

Assay [3] has as its system DENV-1. The experiment in a line: Cell-based flavivirus immunodetection assay in BHK-21 cells, DENV-1. Particulars: MOI of 0.3, 48 h p.i. On the procedure:
as §1

Another assay deals with DENV-2. The experiment in a line: Time-of-addition DENV-2 assay in Vero cells, intracellular viral RNA by qRT-PCR. The class given is cell-based. To be noted: 10 μM for 2 h, added prior to, during, or up to 24 h p.i. On the procedure: To investigate whether 4-HPR can inhibit DENV-2 replication when added prior to infection or post infection (p.i.), 10 μM drug or DMSO (drug diluent) was added to Vero cells 2 h prior to infection, for 2 h during infection, 2 h p.i., or 24 h p.i. In each instance the drug was incubated with the cells for 2 h then removed. Infections were performed for 2 h (MOI of 1) followed by analysis of intracellular viral RNA by qRT-PCR 48 h p.i. Data shown are the mean+SD from one experiment, representative of three independent assays.

The test system of assay [4] is DENV-1. The experiment in a line: ADE-mediated DENV-1 infection of human PBMCs, plaque assay. The format is cell-based. Particulars: Dengue virus, DENV1, PBMC, MOI of 10, 48 h, read-out: ex vivo EC50, ADE-mediated DENV-1 infection. Here is the method: The antiviral activity of 4-HPR was investigated in the more physiologically relevant human system of peripheral blood mononuclear cells (PBMCs), a major target of DENV infection in humans.
PBMCs were prepared from a healthy donor buffy coat using a Ficoll gradient, prior to ADE-mediated DENV-1 infection (MOI of 10) in the presence of increasing concentrations of 4-HPR or 4-MPR, and infectious virus titres determined by plaque assay 48 h later.

Structures are written as SMILES.

For `CC1=C(/C=C/C(C)=C/C=C/C(C)=C/C(=O)Nc2ccc(O)cc2)C(C)(C)CCC1` [4-HPR, N-(4-hydroxyphenyl) retinamide], the half-maximal effective concentration (EC50) in the assay on DENV-1 [1] worked out at 0.85 µM; in the assay on DENV-1 [4], 0.81 µM. For the same compound, the “reduction of infectious CHIKV produced” value in the assay with CHIKV (HEK293T cells pre-treated 2 h with compound) was about 100%; in the assay with CHIKV (HEK293T cells, compound added after infection), about 95%. Moreover, the “average plasma viral titre lower than untreated group, 3 days p.i.” value in the assay on DENV-2 strain (S221) (BID treatment group) was determined as 65%. Further, the “average plasma viral titre 3 days p.i.” value with DENV-2 strain (S221) (QD treatment group) is “small reduction”. The “protection (mice recovered from the infectious challenge)” value with DENV-2 strain (S221) (once daily (QD) for 5 days) is 20%; in the assay on DENV-2 strain (S221) (twice daily (BID) for 5 days), 70%. For the same compound, in the assay with PERK pathway, the “activation of PERK pathway within the unfolded protein response” value was “induces activation of the pro-apoptotic PERK pathway”. Moreover, in assay [2], the “reduction in infectious virus produced (WNVKUN)” value is reported as 89%. Also, at DENV-2 NS5 / IMPα/β, the 50% inhibitory concentration (IC50) came out at 1.2 µM. The “block of association of DENV-2 NS5 with IMPα/β” value at DENV-2 NS5 / IMPα/β (3 nM His6-NS5, 10 nM IMPα/β, increasing concentrations of compound) is recorded as “able to block association”. For the same compound, the “EC50, DENV-3 replication” value in the assay with DENV-3 is “low EC50”. In addition, in the assay on DENV-1 [3], the “EC50, DENV-1 replication” value is “low EC50”. Also, the “intracellular DENV-2 RNA copies 48 h p.i.” value with DENV-2 is reported as “substantial reduction”.
